Measurements taken from ChEMBL document CHEMBL4340555, “Synthesis and biological evaluation of 2-chloro-3-[(thiazol-2-yl)amino]-1,4-naphthoquinones” (Bioorg Med Chem Lett, 2019).
Converted amounts (≈) assume the structure as drawn. The source made the active and inactive calls. The calls are words filed in the database; no cut-off is given here.

Key:
[1] = Lipophilicity, log P of the compound; type: physicochemical; details: octanol/water
[2] = test system: Pseudomonas aeruginosa; assay: Antimicrobial activity against Pseudomonas aeruginosa assessed as zone of inhibition at 2000 uM/disk after 24 hrs by disk diffusion method; type: functional; details: for zone of inhibition at 2000 µM: read-out: DIZ
[3] = test system: Plasmodium falciparum; assay: Antimalarial activity against Plasmodium falciparum 3D7 assessed as reduction in parasite viability by parasite lactate dehydrogenase release based colorimetric assay; type: functional, organism-based
[4] = test system: Mycobacterium tuberculosis; assay: Antitubercular activity against Mycobacterium tuberculosis H37Rv assessed as reduction in bacterial growth after 7 days by green fluorescent protein microplate assay; type: functional; details: 168 h
[5] = test system: Mycobacterium tuberculosis; assay: Antitubercular activity against Mycobacterium tuberculosis H37Rv assessed as reduction in bacterial growth after 14 days by green fluorescent protein microplate assay; type: functional; details: 336 h
[6] = test system: HeLa; assay: Cytotoxicity against human HeLa cells assessed as cell viability at 20 uM after 24 hrs by resazurin based fluorescence assay relative to control; type: functional; details: read-out: Activity
[7] = test system: Pseudomonas aeruginosa; assay: Antimicrobial activity against Pseudomonas aeruginosa assessed as zone of inhibition at 10 uM/disk after 24 hrs by disk diffusion method; type: functional; details: for zone of inhibition at 10 µM: read-out: DIZ
[8] = test system: Pseudomonas aeruginosa; assay: Antimicrobial activity against Pseudomonas aeruginosa assessed as zone of inhibition at 1 uM/disk after 24 hrs by disk diffusion method; type: functional
[9] = test system: Pseudomonas aeruginosa; assay: Antimicrobial activity against Pseudomonas aeruginosa assessed as zone of inhibition at 1000 uM/disk after 24 hrs by disk diffusion method; type: functional; details: for zone of inhibition at 1000 µM: read-out: DIZ
[10] = test system: SH-SY5Y; assay: Cytotoxicity against human SH-SY5Y assessed as reduction in cell viability after 48 hrs by xCELLigence RTCA SP analysis; type: functional, cell-based
[11] = test system: Plasmodium falciparum; assay: Antimalarial activity against Plasmodium falciparum 3D7 assessed as reduction in parasite viability at 20 uM by parasite lactate dehydrogenase released based colorimetric assay relative to control; type: functional
[12] = test system: Pseudomonas aeruginosa; assay: Antimicrobial activity against Pseudomonas aeruginosa assessed as zone of inhibition at 100 uM/disk after 24 hrs by disk diffusion method; type: functional; details: for zone of inhibition at 100 µM: read-out: DIZ
[13] = test system: Pseudomonas aeruginosa; assay: Antimicrobial activity against Pseudomonas aeruginosa assessed as zone of inhibition at 10 ug/disk after 24 hrs by disk diffusion method; type: functional; details: read-out: DIZ
[14] = test system: Pseudomonas aeruginosa; assay: Antimicrobial activity against Pseudomonas aeruginosa assessed as zone of inhibition at 25 ug/disk after 24 hrs by disk diffusion method; type: functional; details: read-out: DIZ
[15] = test system: Pseudomonas aeruginosa; assay: Antimicrobial activity against Pseudomonas aeruginosa assessed as zone of inhibition after 24 hrs by disk diffusion method; type: functional, organism-based
[16] = test system: Plasmodium falciparum; assay: Stimulation of parasite proliferation of Plasmodium falciparum 3D7 assessed as increase in parasite viability at 20 uM by parasite lactate dehydrogenase released based colorimetric assay relative to control; type: organism-based

Compound | logP [1] | diameter of the inhibition zone (DIZ) [2] | MIC90 [4] [µM] | MIC99 [5] [µM] | viability at 20 µM [6] [%] | diameter of the inhibition zone (DIZ) [7] | diameter of the inhibition zone (DIZ) [8] | diameter of the inhibition zone (DIZ) [9] | Activity [10] | inhibition at 20 µM [11] [%] | diameter of the inhibition zone (DIZ) [12] | IC50 [10] [µM] | Activity [15] | zone of inhibition at 2000 µM [2] [mm] | zone of inhibition at 1000 µM [9] [mm] | zone of inhibition at 100 µM [12] [mm] | also measured
O=C1C(Cl)=C(Nc2nc(-c3ccc(Br)cc3)cs2)C(=O)c2ccccc21 | < 5 | inactive | > 20 | > 20 | 55 | inactive | inactive | inactive | Dose-dependent effect | 80 to 90 | inactive | – | – | – | – | – | IC50 [3]: 50.6 µM
CN[C@@H]1[C@H](O[C@H]2[C@H](O[C@H]3[C@H](O)[C@@H](O)[C@H](N=C(N)N)[C@@H](O)[C@@H]3N=C(N)N)O[C@@H](C)[C@]2(O)C=O)O[C@@H](CO)[C@H](O)[C@H]1O [STREPTOMYCIN] | – | – | – | – | – | – | – | – | – | – | – | – | – | – | – | – | zone of inhibition at 10 µg/disc [13]: 20 mm
CCOC(=O)c1csc(NC2=C(Cl)C(=O)c3ccccc3C2=O)n1 | < 5 | inactive | 19.5 (≈ 7.07 µg/mL) | > 20 | 82 | inactive | inactive | inactive | Dose-dependent effect | 40 | inactive | 31.1 | – | – | – | – | –
CC1(C)S[C@@H]2[C@H](NC(=O)[C@H](N)c3ccccc3)C(=O)N2[C@H]1C(=O)O [AMPICILLIN] | – | – | – | – | – | – | – | – | – | – | – | – | – | – | – | – | zone of inhibition at 25 µg/disc [14]: 24.7 mm
CCN(CC)CCCC(C)Nc1ccnc2cc(Cl)ccc12 (centres undefined) [CHLOROQUINE] | – | inactive | – | – | 3.6 | inactive | inactive | inactive | – | – | inactive | – | – | – | – | – | –
O=C1C(Cl)=C(Nc2nc(-c3ccccc3)cs2)C(=O)c2ccccc21 | < 5 | – | 9.19 (≈ 3.37 µg/mL) | 10.2 (≈ 3.74 µg/mL) | 80 | – | inactive | – | Dose-dependent effect | 10 | – | 1.8 | Dose-dependent effect | 13.2 | 11.4 | 9.1 | zone of inhibition at 10 µM [7]: 5.3 mm
CO[C@H]1/C=C/O[C@@]2(C)Oc3c(C)c(O)c4c(O)c(c(/C=N/N5CCN(C)CC5)c(O)c4c3C2=O)NC(=O)/C(C)=C\C=C\[C@H](C)[C@H](O)[C@@H](C)[C@@H](O)[C@@H](C)[C@H](OC(C)=O)[C@@H]1C [RIFAMPIN] | – | – | 0.0015 (≈ 0.00123 µg/mL) | 0.00167 (≈ 0.00137 µg/mL) | – | – | – | – | – | – | – | – | – | – | – | – | –
O=C1C(Cl)=C(Nc2nc(-c3ccc(F)cc3)cs2)C(=O)c2ccccc21 | < 5 | – | 9.37 (≈ 3.61 µg/mL) | 10.4 (≈ 4 µg/mL) | 75 | – | – | – | Dose-dependent effect | 80 to 90 | – | 1.5 | Dose-dependent effect | 19.5 | 15 | 11 | IC50 [3]: 44.7 µM; zone of inhibition at 10 µM [7]: 8 mm; zone of inhibition at 1 µM ([8]; read-out: DIZ): 5 mm
O=C1C(Cl)=C(Nc2nc(-c3ccc([N+](=O)[O-])cc3)cs2)C(=O)c2ccccc21 | < 5 | – | > 20 | > 20 | 80 | inactive | inactive | – | Dose-dependent effect | 80 to 90 | – | – | Dose-dependent effect | 14.1 | 11 | 7.2 | IC50 [3]: 20.3 µM
O=C(O)c1csc(NC2=C(Cl)C(=O)c3ccccc3C2=O)n1 | < 5 | inactive | > 20 | > 20 | 75 | inactive | inactive | inactive | Dose-dependent effect | – | inactive | > 100 | – | – | – | – | Activity [16]: 15%
O=C1C(Cl)=C(Nc2nc(-c3ccc(Cl)cc3)cs2)C(=O)c2ccccc21 | < 5 | – | > 20 | > 20 | 80 | inactive | inactive | – | Dose-dependent effect | 30 | – | 2.7 | Dose-dependent effect | 12 | 9.7 | 7.6 | –
